Results published in patent US20230346793A1, “Compositions and Methods for Treating SARS-CoV-2” (priority 2020, published 2023).

What was measured:
SARS-CoV-2 = assay: microbe, parasite or virus in culture; type: cell-based; settings: for EC50: Severe acute respiratory syndrome coronavirus 2, Vero C1008, in Primates, read-out: EC50 (effective concentration that gave half-maximal response), inhibition of SARS-CoV-2 infection; for inhibition of SARS-CoV-2 infection: VeroE6 plaque reduction assay, dose-dependent analysis
calmodulin = calmodulin (Homo sapiens, UniProt P0DP23); settings: Winkler 1987; Zimmer and Hofmann 1984; Reiermann and Rüegg 1986; cited from earlier work

Row | SMILES | EC50 (SARS-CoV-2) [µM] | inhibition of SARS-CoV-2 infection (SARS-CoV-2) | inhibition of calmodulin (calmodulin)
1 | CN1CCN(CCCN2c3ccccc3Sc3ccc(C(F)(F)F)cc32)CC1 [TFP, Trifluoperazine] | 7.7 | potently inhibited SARS-CoV-2 infection in a dose-dependent fashion | 
2 | CC(C)COCC(CN(Cc1ccccc1)c1ccccc1)N1CCCC1 (centres unmarked) [BPD, Bepridil] | 7.13 | strong inhibition of SARS-CoV-2 infection in a dose-dependent manner | inhibit calmodulin
